Reference: PMC4603696, “Discovery and characterization of novel small-molecule inhibitors targeting nicotinamide phosphoribosyltransferase” (Scientific Reports, 2015)
Where two headings read alike, the source gives them in different places.

Tests used:
NAD level of HepG2 cells = assay: Cellular NAD level, spectrophotometric enzymatic cycling assay; format: cell-based, human
From the text: F0 was the average d fluo rescen ce of si x backgr ound control s, repres ent ing zero activ ity from a si mul ated enz ym e reaction wit h on ly NAMP T but no NAM and com pound; F100 % was the average d fluorescen ce of si x ref erence cont rols, repr ese nt ing 100% activ ity from int act enz ym e reaction w ithou t com pound p ert ur bation.
Compounds with Activ ity% less tha n 40% were consi dered as inhi bi tor s and subj ect ed to a secondary screen inhi bition valida tion, in whi ch anot her backgr oun d cont rol (FC0), a si mul ated enz ym e reaction with NAMP Tand com pound but no NAM, was int roduced to elimina te the di rec t and /or ind irect inf lue nc e fro m compou nd. At thi s st age , the Activ ity% was cal culated accor ding t o e qua tion ( 2) :
In the screeni ng, the si gna l-to- noi se (S/N) rat io was cal cul ated usi ng the equa tion: (Mean signal -Mean backgr oun d) / SD backgr oun d4. Coe fficient s of vari atio n (CV) were the ratio of SD to mean. The Z ’f act or w as de term ine d by e qua tion (3) 5:
Z' −= (3)1−3(S Dhi ghsigna l+SDlowsigna l)
Mean hi gh signa l Meanlow signa l
Determ inat ion of IC50 for NAMPT inhi bitor s […]
vari ous con cent ration s were adde d int o 96-well pl ate. The pl ate was inc uba ted at 37 °C for 5 min after addition of 16.5 μl react ion buf fer cont aini ng N AMP T. The enz ym e reactions were ini tiated by 4.5 μl NAM (1.1 1 μM) follow ing NMN measurem ent as de scri bed above . […]
Cellul ar level of NAD was measured by spe ctrophot om etric enz ym atic cyc ling assa y, as de scri bed pr evi ousl y6-8. […]
Cell vi ability was de termine d by ou r previ ous method9 usi ng the Cell Counting Kit-8 (CCK -8, Dojindo, Ja pa n). […] Th e absor banc e at 450 nm (A450) was de tected by a pl ate reade r. […]
Briefly, cel ls were se ede d int o 96-well pl ates, cul tur ed overni ght , and trea ted with correspond ing com poun ds for 72 h. […] Sul for hoda mine B in the cells was di sso lved in 10 mmol/L Tris-HCl and was measured at 515 nm usi ng a multiw ell spect ropho tometer […]

HCT116 cells = assay: SRB assay in HCT116; format: cell-based; conditions: Homo sapiens, HCT-116, read-out: anti-proliferation IC50, initial screen
Method: (§1) Sulfor hod am ine B p rotei n st ai ning (SRB) assay
(§2) Cell pr oliferat ion was eva lua ted by sul for hod amine B pr ot ein st aini ng (SRB) assa y10-12.
(§3) Briefly, cel ls were se ede d int o 96-well pl ates, cul tur ed overni ght , and trea ted with correspond ing com poun ds for 72 h. Cells were the n fixe d with 10% trichl or oa cetic aci d and st ained with sul for hoda mine B (Sigm a). Sul for hoda mine B in the cells was di sso lved in 10 mmol/L Tris-HCl and was measured at 515 nm usi ng a multiw ell spect ropho tometer (VERSA max, Mol ecul ar Devi ces, Sunnyva le, CA). The inhi bi tion rat e on cell pr olif eratio n was cal culated for each well as (A515contr ol cells-A 515tr eated cells)/A515contr ol cells×100 % (A515:
(§4) OD va lue at 515 nm ). The averag e IC50 va lue s were de termine d by Logit method from at leas t t hr eei nde pe nde nt test s.

Huh7-C cells = assay: CCK-8 assay in stem-like human hepatoma cell line Huh7-C; format: cell-based; conditions: 60 h, read-out: CCK-8 assay in Huh7-C: IC50
Method: Cellc ount ing k it-8 (CCK-8) assa y
Cell vi ability was de termine d by ou r previ ous method9 usi ng the Cell Counting Kit-8 (CCK -8, […]
10 μl CCK-8 sol ution was adde d to the cul ture medium and inc ub ated at 37 °C for 1 h. Th e absor banc e at 450 nm (A450) was de tected by a pl ate reade r. Each e xperi ment w as carr ied out i n t riplic ate i n thr ee r eplic ate w ells.

[1] = system: ovarian cancer cell line A2780; assay: SRB assay in A2780; format: cell-based, human; conditions: A2780, 72 hours
Method: as §1, §2, §3, §4

HepG2 cells = assay: Sulforhodamine B protein staining (SRB) assay in HepG2; format: cell-based, human; conditions: for IC50: Homo sapiens
Method: as §1, §2, §3, §4

## O=S(=O)(c1ccc(NC(=S)NCc2cccnc2)cc1)N1CCCCC1 [MS0]
NAD level of HepG2 cells; HepG2, 1 μM, 24 hours
  decrease of cellular NAD level: ~ 70%
NAD level of HepG2 cells; Homo sapiens, HepG2, 24 hours treatment, read-out: IC50 for reducing NAD level
  IC50: 93.7 nM
HCT116 cells
  IC50: < 5 µM
Huh7-C cells
  IC50: 722 ± 36.3 nM
[1]
  growth inhibition (SRB, in words): potent growth inhibition
HepG2 cells; HepG2, 72 hours
  growth inhibition (SRB, in words): potent growth inhibition
HepG2 cells; HepG2, 72 h, read-out: SRB assay in HepG2: IC50, HepG2, second test, 2-fold concentration gradient, 72 hours
  IC50: ~3000 nM
HepG2 cells; HepG2, read-out: anti-proliferation IC50, initial screen, HepG2, SRB, 10-fold concentration gradient
  IC50: < 5000 nM
